Here are results for two compounds from ChEMBL document CHEMBL5385886, “Design, synthesis and evaluation of nitric oxide releasing derivatives of 2,4-diaminopyrimidine as novel FAK inhibitors for intervention of metastatic triple-negative breast cancer” (Eur J Med Chem, 2023).

Series [1] deals with MDA-MB-231. Briefly: Induction of NO production in human MDA-MB-231 cells at 4 uM incubated for 72 hrs by DAF-FM-DA dye based flow cytometry analysis. The format is functional, cell-based. In general terms: Flow cytometry measures light scatter and fluorescence of single cells or particles in a stream.
For series [2], the system named is MDA-MB-231. Briefly: Antiproliferative activity against human MDA-MB-231 cells assessed as inhibition of cell proliferation at 5 uM incubated for 72 hrs by MTT assay relative to control. The format is functional. (Formazan colour is commonly taken as a measure of viable cells.)
The test system of another series is MDA-MB-157. Briefly: Antiproliferative activity against human MDA-MB-157 cells assessed as inhibition of cell proliferation incubated for 72 hrs by MTT assay. The format is functional, cell-based. Particulars: MDA-MB-157, 72 h.
The target of the next series is Focal adhesion kinase 1 (Homo sapiens, UniProt Q05397). Briefly: Inhibition of FAK (unknown origin).
Sequence of Focal adhesion kinase 1 (Q05397 whole entry): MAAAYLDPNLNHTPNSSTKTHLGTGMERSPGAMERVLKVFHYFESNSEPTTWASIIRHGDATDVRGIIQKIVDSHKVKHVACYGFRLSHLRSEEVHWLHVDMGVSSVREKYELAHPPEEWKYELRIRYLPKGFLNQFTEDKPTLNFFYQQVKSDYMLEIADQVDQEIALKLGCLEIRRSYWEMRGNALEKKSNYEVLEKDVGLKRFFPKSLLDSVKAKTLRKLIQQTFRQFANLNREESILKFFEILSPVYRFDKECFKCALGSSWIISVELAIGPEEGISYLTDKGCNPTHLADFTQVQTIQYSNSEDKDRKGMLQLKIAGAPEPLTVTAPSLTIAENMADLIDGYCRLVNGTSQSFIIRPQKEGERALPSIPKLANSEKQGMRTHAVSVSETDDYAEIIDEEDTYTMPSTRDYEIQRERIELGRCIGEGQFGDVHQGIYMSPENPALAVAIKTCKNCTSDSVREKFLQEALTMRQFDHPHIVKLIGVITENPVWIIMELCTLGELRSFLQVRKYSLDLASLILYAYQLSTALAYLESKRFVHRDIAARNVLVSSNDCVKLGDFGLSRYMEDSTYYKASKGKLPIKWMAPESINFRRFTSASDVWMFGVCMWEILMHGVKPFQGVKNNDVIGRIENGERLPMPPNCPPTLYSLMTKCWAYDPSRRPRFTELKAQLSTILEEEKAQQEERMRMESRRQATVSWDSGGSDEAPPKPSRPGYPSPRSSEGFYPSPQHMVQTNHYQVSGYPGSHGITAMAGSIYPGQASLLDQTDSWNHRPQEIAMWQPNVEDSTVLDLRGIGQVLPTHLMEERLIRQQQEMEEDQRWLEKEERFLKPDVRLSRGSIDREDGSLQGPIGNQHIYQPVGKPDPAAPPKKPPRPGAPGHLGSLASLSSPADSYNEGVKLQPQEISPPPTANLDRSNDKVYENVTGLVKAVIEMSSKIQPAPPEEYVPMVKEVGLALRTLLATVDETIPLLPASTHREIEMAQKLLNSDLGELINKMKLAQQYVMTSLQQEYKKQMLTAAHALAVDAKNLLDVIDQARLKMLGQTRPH
For another series, the system named is MDA-MB-453. Briefly: Antiproliferative activity against human MDA-MB-453 cells assessed as inhibition of cell proliferation incubated for 72 hrs by MTT assay. Type of series: functional, cell-based. Particulars: MDA-MB-453, 72 h.
Series [3] relates to MDA-MB-231. Briefly: Antiproliferative activity against human MDA-MB-231 cells assessed as inhibition of cell proliferation incubated for 72 hrs by MTT assay. The format is functional, cell-based. Particulars: MDA-MB-231, 72 h.
Series [4] deals with MDA-MB-231. Briefly: Induction of apoptosis in human MDA-MB-231 cells assessed as live cells at 4 uM incubated for 72 hrs by Annexin V-FITC/PI staining based flow cytometry analysis (reference value: 97.51%). The format is functional.
Series [5] relates to MDA-MB-231. Briefly: Induction of apoptosis in human MDA-MB-231 cells assessed as early apoptotic cells at 4 uM incubated for 72 hrs by Annexin V-FITC/PI staining based flow cytometry analysis (reference value: 2.16%). Type of series: functional.
The subject of series [6] is MDA-MB-231. Briefly: Induction of apoptosis in human MDA-MB-231 cells assessed as dead cells at 4 uM incubated for 72 hrs by Annexin V-FITC/PI staining based flow cytometry analysis (reference value: 0.23%). The format is functional.
Series [7] can be described thus: Cytotoxicity against human MCF-10A cells assessed as inhibition of cell proliferation incubated for 72 hrs by MTT assay. Type of series: toxicity, cell-based.
For series [8], the system named is MDA-MB-231. Briefly: Induction of apoptosis in human MDA-MB-231 cells assessed as late apoptotic cells at 4 uM incubated for 72 hrs by Annexin V-FITC/PI staining based flow cytometry analysis (reference value: 0.11%). Type of series: functional.

The source made the active and inactive calls. The calls are words filed in the database; no cut-off is given here.

One may read the inhibition as the share of the control response that was lost under treatment. The term IC50 denotes the concentration at which inhibition is half-maximal. As to `CNC(=O)c1ccccc1Nc1nc(Nc2ccc(CC(=O)OCCCCCOc3no[n+]([O-])c3S(=O)(=O)c3ccccc3)cc2)ncc1Cl`, the outcome with MDA-MB-231 [1] was Active. The inhibition at 5 µM in the series with MDA-MB-231 [2] was over 92%. Also, the IC50 with MDA-MB-157 worked out at 235 nM; against Focal adhesion kinase 1, 107 nM; with MDA-MB-453, 221 nM; in the series with MDA-MB-231 [3], 130 nM.
Take `CNC(=O)c1ccccc1Nc1nc(Nc2ccc(N3CCOCC3)cc2OC)ncc1Cl`: the Activity in the series with MDA-MB-231 [4] amounted to 57.79%; in the series with MDA-MB-231 [5] it was 40.78%; in the series with MDA-MB-231 [6], 0.11%; with MDA-MB-231 [8], 1.31%. Further, the IC50 with MDA-MB-157 turned out to be 912 nM; in the series with MDA-MB-453, 1220 nM; in the series with MDA-MB-231 [3] it was 1170 nM. Further, the IC50 at 72 h in series [7] was determined as 6.47 µM.
